Test results: patent publication US8022225B2, “Triazole derivative” (Taisho Pharmaceutical Co., Ltd, priority 2004, dated 2011)

Tests used:
[1] = target: T1, human Edg-1(S1P1) (Homo sapiens, UniProt P21453); assay: Membrane system binding test: inhibition of [33P]-S1P binding to the membrane fraction of Edg-1(S1P1) gene transferred HEK-293 cells; conditions: 10 μM compound; [33P]-S1P 0.1 nM; membrane fraction of Edg-1(S1P1) gene transferred HEK-293 cells; read-out: Membrane system binding test % inhibition (10 μM)
T1 construct: expressed in transfected cells; host or cells: HEK-293
T1 sequence (P21453 whole entry): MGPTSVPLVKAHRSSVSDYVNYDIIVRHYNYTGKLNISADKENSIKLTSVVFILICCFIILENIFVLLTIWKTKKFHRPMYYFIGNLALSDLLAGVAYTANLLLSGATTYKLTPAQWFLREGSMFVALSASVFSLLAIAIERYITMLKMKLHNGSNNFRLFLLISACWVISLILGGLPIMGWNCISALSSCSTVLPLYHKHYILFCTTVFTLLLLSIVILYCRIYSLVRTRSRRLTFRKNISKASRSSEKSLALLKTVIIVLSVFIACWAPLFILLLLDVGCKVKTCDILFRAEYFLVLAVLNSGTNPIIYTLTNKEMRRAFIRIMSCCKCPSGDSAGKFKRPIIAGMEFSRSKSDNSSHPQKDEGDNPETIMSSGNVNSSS
Outline: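 Membranes from HEK-293 cells transfected with Edg-1(S1P1) incubated 1 h at 30 °C with 0.1 nM [^33P]-S1P and compound at 10^−5 M (0.1% DMSO), pH 7.4 buffer with fatty acid-free BSA. Filter-bound radioactivity counted; inhibition rate calculated against no-compound binding, with untransfected-cell background subtracted.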

[2] = target: T1, human Edg-1(S1P1); assay: Cell system binding test: inhibition of [3H]-S1P binding to Edg-1(S1P1) gene transferred HEK-293 cells; conditions: 10 μM compound, [3H]-S1P 10 nM, read-out: Cell system binding test % inhibition (10 μM)

SMILES	inhibition at 10 µM [1] [%]	inhibition at 10 µM [2] [%]
CCn1c(OC)nnc1[C@H](C)NS(=O)(=O)c1ccc(Cl)c([N+](=O)[O-])c1 [Compound 209]	104	91.4
CCn1c(OC)nnc1[C@@H](C)NS(=O)(=O)CCCCl [Compound 210]	46.6	91.8
CCn1c(OC)nnc1[C@@H](C)NS(=O)(=O)c1ccc(NC(C)=O)c(Cl)c1 [Compound 211]	46.9	93.9
CCn1c(OC)nnc1[C@@H](C)NS(=O)(=O)c1ccccc1C#N [Compound 212]	45.6	92.4
CCn1c(OC)nnc1[C@@H](C)NS(=O)(=O)c1cccc(C#N)c1 [Compound 213]	66.1	96.2
CCn1c(OC)nnc1[C@@H](C)NS(=O)(=O)c1sc2ccc(Cl)cc2c1C [Compound 214]	59.3	96.8
CCn1c(OC)nnc1[C@@H](C)NS(=O)(=O)c1ccc(C)c(Cl)c1 [Compound 215]	94.4	98.3
CCn1c(OC)nnc1[C@@H](C)NS(=O)(=O)c1cc(Cl)cc(Cl)c1O [Compound 216]	63.7	97.2
CCn1c(OC)nnc1[C@@H](C)NS(=O)(=O)c1cc(Cl)sc1Cl [Compound 217]	62.3	97.4
CCn1c(OC)nnc1[C@@H](C)NS(=O)(=O)c1cccc2c(N(C)C)cccc12 [Compound 218]	40.2	101
CCn1c(OC)nnc1[C@@H](C)NS(=O)(=O)c1cc(Cl)c(Cl)s1 [Compound 220]	98	97.2
CCn1c(OC)nnc1[C@@H](C)NS(=O)(=O)c1ccc(OC)c(OC)c1 [Compound 221]	56.1	89.9
CCc1ccc(S(=O)(=O)N[C@H](C)c2nnc(OC)n2CC)cc1 [Compound 222]	71.8	92.9
CCn1c(OC)nnc1[C@@H](C)NS(=O)(=O)c1ccc(F)cc1 [Compound 223]	70.4	95.5
CCn1c(OC)nnc1[C@@H](C)NS(=O)(=O)C(C)C [Compound 224]	54.5	92.2
CCn1c(OC)nnc1[C@@H](C)NS(=O)(=O)c1ccc(OC)cc1 [Compound 226]	42.4	92.3
CCn1c(OC)nnc1[C@@H](C)NS(C)(=O)=O [Compound 227]	52	92.6
CCn1c(OC)nnc1[C@@H](C)NS(=O)(=O)c1cccc2ccccc12 [Compound 229]	61.1	102
CCn1c(OC)nnc1[C@@H](C)NS(=O)(=O)c1ccc2ccccc2c1 [Compound 230]	102	103
CCn1c(OC)nnc1[C@@H](C)NS(=O)(=O)c1ccccc1[N+](=O)[O-] [Compound 231]	40.3	96.6
CCn1c(OC)nnc1[C@@H](C)NS(=O)(=O)c1ccc([N+](=O)[O-])cc1 [Compound 233]	93.2	99.8

SMILES	inhibition at 10 µM [1] [%]	inhibition at 10 µM [2] [%]
CCn1c(OC)nnc1[C@@H](C)NS(=O)(=O)CCc1cccc2ccccc12 [Compound 235]	63.8	111
CCn1c(OC)nnc1[C@@H](C)NS(=O)(=O)c1c(F)c(F)c(F)c(F)c1F [Compound 237]	52.5	95.4
CCn1c(OC)nnc1[C@@H](C)NS(=O)(=O)c1ccc(I)cc1 [Compound 238]	79.1	99.1
CCn1c(OC)nnc1[C@@H](C)NS(=O)(=O)c1cccc2cccnc12 [Compound 240]	70.3	93.4
CCn1c(OC)nnc1[C@@H](C)NS(=O)(=O)/C=C/c1ccccc1 [Compound 241]	80.5	102
CCn1c(OC)nnc1[C@@H](C)NS(=O)(=O)c1cccs1 [Compound 242]	49.9	100
CCn1c(OC)nnc1[C@@H](C)NS(=O)(=O)c1ccc(C)cc1 [Compound 243]	66	102
CCn1c(OC)nnc1[C@@H](C)NS(=O)(=O)c1cccc(C(F)(F)F)c1 [Compound 245]	87.7	96.8
CCn1c(OC)nnc1[C@@H](C)NS(=O)(=O)c1ccccc1C [Compound 246]	61.8	98.1
CCn1c(OC)nnc1[C@@H](C)NS(=O)(=O)c1ccc(OC(F)(F)F)cc1 [Compound 247]	52	95.3
CCn1c(OC)nnc1[C@@H](C)NS(=O)(=O)c1cccc(C)c1 [Compound 248]	83.3	99.5
CCn1c(OC)nnc1[C@@H](C)NS(=O)(=O)c1ccc(C(F)(F)F)cc1 [Compound 249]	86.3	101
CCn1c(OC)nnc1[C@@H](C)NS(=O)(=O)c1cc(S(=O)(=O)c2ccccc2)cs1 [Compound 250]	42.9	88.7
CCn1c(OC)nnc1[C@@H](C)NS(=O)(=O)c1cnc(Cl)c(Br)c1 [Compound 251]	106	102
CCn1c(OC)nnc1[C@@H](C)NS(=O)(=O)c1cc(Br)c(Cl)s1 [Compound 252]	100	103
CCn1c(OC)nnc1[C@@H](C)NS(=O)(=O)c1ccsc1C(=O)OC [Compound 255]	48.3	96.3
CCn1c(OC)nnc1[C@@H](C)NS(=O)(=O)c1cc(C(=O)OC)c(C)o1 [Compound 257]	58.1	95.7
CCn1c(OC)nnc1[C@@H](C)NS(=O)(=O)c1ccccc1C(F)(F)F [Compound 260]	46.9	89.4
CCn1c(OC)nnc1[C@@H](C)NS(=O)(=O)c1ccc(-c2ccccc2)cc1 [Compound 261]	56.7	94.5
CCCc1ccc(S(=O)(=O)N[C@H](C)c2nnc(OC)n2CC)cc1 [Compound 262]	68.8	96.5
CCn1c(OC)nnc1[C@@H](C)NS(=O)(=O)c1ccc(C)cc1OC [Compound 264]	42.7	95.8

SMILES	inhibition at 10 µM [1] [%]	inhibition at 10 µM [2] [%]
CCn1c(OC)nnc1[C@@H](C)NS(=O)(=O)c1cc(C(F)(F)F)cc(C(F)(F)F)c1 [Compound 265]	69.5	98.2
CCn1c(OC)nnc1[C@@H](C)NS(=O)(=O)c1cc(Cl)cc(Cl)c1 [Compound 266]	83	97
CCn1c(OC)nnc1[C@@H](C)NS(=O)(=O)c1cccc(Cl)c1C [Compound 267]	89.4	99.9
CCn1c(OC)nnc1[C@@H](C)NS(=O)(=O)c1ccc(F)c(Cl)c1 [Compound 268]	88.6	98.7
CCn1c(OC)nnc1[C@@H](C)NS(=O)(=O)c1cccc(OC)c1 [Compound 269]	74.5	96.3
CCn1c(OC)nnc1[C@@H](C)NS(=O)(=O)c1cc(F)c(Br)cc1F [Compound 270]	61.3	94.8
CCn1c(OC)nnc1[C@@H](C)NS(=O)(=O)c1ccc(Br)c(Br)c1 [Compound 272]	94.3	102
CCn1c(OC)nnc1[C@@H](C)NS(=O)(=O)c1cc(C)ccc1OC [Compound 273]	68.4	94.3
CCn1c(OC)nnc1[C@@H](C)NS(=O)(=O)c1ccc(Cl)c(Cl)c1 [Compound 274]	104	102
CCn1c(OC)nnc1[C@@H](C)NS(=O)(=O)c1cccc(OC(F)(F)F)c1 [Compound 275]	71.9	99.4
CCn1c(OC)nnc1[C@@H](C)NS(=O)(=O)c1ccc(C#N)cc1 [Compound 277]	51.4	99.7
CCn1c(OC)nnc1[C@@H](C)NS(=O)(=O)c1ccc(C(C)C)cc1 [Compound 282]	48.1	92.7
CCCCCc1ccc(S(=O)(=O)N[C@H](C)c2nnc(OC)n2CC)cc1 [Compound 284]	41.5	88
CCn1c(OC)nnc1[C@@H](C)NS(=O)(=O)c1ccc(F)c(F)c1F [Compound 285]	63.9	97.1
CCn1c(OC)nnc1[C@@H](C)NS(=O)(=O)c1cc(F)ccc1F [Compound 286]	57.4	97.5
CCn1c(OC)nnc1[C@@H](C)NS(=O)(=O)c1ccc(F)c(F)c1 [Compound 287]	80.1	100
CCn1c(OC)nnc1[C@@H](C)NS(=O)(=O)c1ccc(Br)cc1F [Compound 288]	54.9	103
CCn1c(OC)nnc1[C@@H](C)NS(=O)(=O)c1cc(F)c(Cl)cc1F [Compound 289]	63.6	102
CCn1c(OC)nnc1[C@@H](C)NS(=O)(=O)Cc1cc(Cl)cc(Cl)c1 [Compound 292]	51.4	96.7
CCn1c(OC)nnc1[C@@H](C)NS(=O)(=O)c1cccc(F)c1 [Compound 299]	44.4	94.5
